Assays:
human SMG1 enzyme = human SMG1 enzyme (Homo sapiens, UniProt Q96Q15); test: Measurement of SMG1 kinase activity (ADP-Glo Kinase Assay); type: biochemical; details: purified human SMG1 enzyme 5 nM, Upf1 peptide substrate, ATP 4 μM; qAC50 synonymous with IC50; read-out: Test Example 1 ADP-Glo IC50
In short: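 ADP-Glo luminescence readout of ADP made by 5 nM human SMG1 acting on 8 μg/mL Upf1 peptide with 4 μM ATP for 60 min at room temperature, after a 15 min enzyme–compound preincubation (1% DMSO; pH 7.5 HEPES, MnCl2). Activity scaled between DMSO and no-enzyme wells; IC50 by four-parameter logistic regression.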

[1] = test system: Snhg1 transcript in tumor tissues of mice subcutaneously implanted with EMT6 murine breast cancer cell line; test: Evaluation of NMD inhibitory activity in vivo (Snhg1 transcript in EMT6 tumor tissue after oral administration); details: 6 hours after administration, BALB/c mice
Protocol: The NMD inhibitory activity of a compound of the present invention or a pharmaceutically acceptable salt thereof in vivo can be measured, for example, by the method described below. Using mice subcutaneously implanted with EMT6 murine breast cancer cell line, tumor tissues 6 hours after oral administration of a test substance are excised, and the increase in Snhg1 transcript is quantified as an indicator of NMD inhibition in the tumor, in the same manner as in the in vitro method.
In this test, NMD inhibitory activity in tumor tissues was evaluated when a test substance was orally administered to mice subcutaneously implanted with EMT6 murine breast cancer cell line. As an indicator of NMD inhibitory activity, the increase in the transcript of Snhg1, an NMD target gene, was quantified. First, BALB/c mice were subcutaneously implanted with EMT6 cells (ATCC), and engraftment was confirmed 7 days later. Six hours after administration of the test substance, mice were euthanized, and the collected tumor tissues were cryopreserved. RNA was extracted from the tumor tissues using the illustra RNAspin Mini RNA Isolation kit (GE Healthcare Life Sciences). After synthesizing cDNA using the High-Capacity cDNA Reverse Transcription Kits (Applied Biosystems, 4368813), the cDNA was mixed with PrimeTime Gene Expression Master Mix (Integrated DNA Technologies) and various probes, and gene expression was quantified by QuantStudio 6 Flex (Thermo Fisher Scientific Inc.). For the probe for the Snhg1 gene, which is an NMD target, Mm.PT.58.44039547 (FAM) (Integrated DNA Technologies) was used, and for the probe for the Gapdh gene, which is an endogenous control, Mm99999915_g2 (VIC-PL) (Applied Biosystems) was used. The relative quantification of Snhg1 transcripts in each sample was calculated by the ΔΔCT method using Gapdh as an endogenous control, and the expression level of Snhg1 in each test substance administration group was calculated by setting the expression level of the Vehicle group (0.5% methylcellulose administration group) to 1.

[2] = test system: Snhg1 transcript (NMD target gene) in EMT6 murine breast cancer cell line; test: Measurement of NMD inhibitory activity in cells (increase in Snhg1 transcript, real-time PCR); parameters: species or system mouse; details: Mus musculus, 6 hours treatment, concentration giving 1/2 of maximum Snhg1 fold change of positive control, read-out: Test Example 2 Cell-based Snhg1 EC50
In short: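 EMT6 cells treated with serially diluted compound (2% DMSO final) for 6 h; Snhg1 transcript quantified by real-time PCR (ΔΔCT, Tbp endogenous control, untreated wells set to 1). EC50 taken as concentration giving half the maximum fold change of a known NMD inhibitor positive control.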

Chain of human SMG1 enzyme (Q96Q15 whole entry): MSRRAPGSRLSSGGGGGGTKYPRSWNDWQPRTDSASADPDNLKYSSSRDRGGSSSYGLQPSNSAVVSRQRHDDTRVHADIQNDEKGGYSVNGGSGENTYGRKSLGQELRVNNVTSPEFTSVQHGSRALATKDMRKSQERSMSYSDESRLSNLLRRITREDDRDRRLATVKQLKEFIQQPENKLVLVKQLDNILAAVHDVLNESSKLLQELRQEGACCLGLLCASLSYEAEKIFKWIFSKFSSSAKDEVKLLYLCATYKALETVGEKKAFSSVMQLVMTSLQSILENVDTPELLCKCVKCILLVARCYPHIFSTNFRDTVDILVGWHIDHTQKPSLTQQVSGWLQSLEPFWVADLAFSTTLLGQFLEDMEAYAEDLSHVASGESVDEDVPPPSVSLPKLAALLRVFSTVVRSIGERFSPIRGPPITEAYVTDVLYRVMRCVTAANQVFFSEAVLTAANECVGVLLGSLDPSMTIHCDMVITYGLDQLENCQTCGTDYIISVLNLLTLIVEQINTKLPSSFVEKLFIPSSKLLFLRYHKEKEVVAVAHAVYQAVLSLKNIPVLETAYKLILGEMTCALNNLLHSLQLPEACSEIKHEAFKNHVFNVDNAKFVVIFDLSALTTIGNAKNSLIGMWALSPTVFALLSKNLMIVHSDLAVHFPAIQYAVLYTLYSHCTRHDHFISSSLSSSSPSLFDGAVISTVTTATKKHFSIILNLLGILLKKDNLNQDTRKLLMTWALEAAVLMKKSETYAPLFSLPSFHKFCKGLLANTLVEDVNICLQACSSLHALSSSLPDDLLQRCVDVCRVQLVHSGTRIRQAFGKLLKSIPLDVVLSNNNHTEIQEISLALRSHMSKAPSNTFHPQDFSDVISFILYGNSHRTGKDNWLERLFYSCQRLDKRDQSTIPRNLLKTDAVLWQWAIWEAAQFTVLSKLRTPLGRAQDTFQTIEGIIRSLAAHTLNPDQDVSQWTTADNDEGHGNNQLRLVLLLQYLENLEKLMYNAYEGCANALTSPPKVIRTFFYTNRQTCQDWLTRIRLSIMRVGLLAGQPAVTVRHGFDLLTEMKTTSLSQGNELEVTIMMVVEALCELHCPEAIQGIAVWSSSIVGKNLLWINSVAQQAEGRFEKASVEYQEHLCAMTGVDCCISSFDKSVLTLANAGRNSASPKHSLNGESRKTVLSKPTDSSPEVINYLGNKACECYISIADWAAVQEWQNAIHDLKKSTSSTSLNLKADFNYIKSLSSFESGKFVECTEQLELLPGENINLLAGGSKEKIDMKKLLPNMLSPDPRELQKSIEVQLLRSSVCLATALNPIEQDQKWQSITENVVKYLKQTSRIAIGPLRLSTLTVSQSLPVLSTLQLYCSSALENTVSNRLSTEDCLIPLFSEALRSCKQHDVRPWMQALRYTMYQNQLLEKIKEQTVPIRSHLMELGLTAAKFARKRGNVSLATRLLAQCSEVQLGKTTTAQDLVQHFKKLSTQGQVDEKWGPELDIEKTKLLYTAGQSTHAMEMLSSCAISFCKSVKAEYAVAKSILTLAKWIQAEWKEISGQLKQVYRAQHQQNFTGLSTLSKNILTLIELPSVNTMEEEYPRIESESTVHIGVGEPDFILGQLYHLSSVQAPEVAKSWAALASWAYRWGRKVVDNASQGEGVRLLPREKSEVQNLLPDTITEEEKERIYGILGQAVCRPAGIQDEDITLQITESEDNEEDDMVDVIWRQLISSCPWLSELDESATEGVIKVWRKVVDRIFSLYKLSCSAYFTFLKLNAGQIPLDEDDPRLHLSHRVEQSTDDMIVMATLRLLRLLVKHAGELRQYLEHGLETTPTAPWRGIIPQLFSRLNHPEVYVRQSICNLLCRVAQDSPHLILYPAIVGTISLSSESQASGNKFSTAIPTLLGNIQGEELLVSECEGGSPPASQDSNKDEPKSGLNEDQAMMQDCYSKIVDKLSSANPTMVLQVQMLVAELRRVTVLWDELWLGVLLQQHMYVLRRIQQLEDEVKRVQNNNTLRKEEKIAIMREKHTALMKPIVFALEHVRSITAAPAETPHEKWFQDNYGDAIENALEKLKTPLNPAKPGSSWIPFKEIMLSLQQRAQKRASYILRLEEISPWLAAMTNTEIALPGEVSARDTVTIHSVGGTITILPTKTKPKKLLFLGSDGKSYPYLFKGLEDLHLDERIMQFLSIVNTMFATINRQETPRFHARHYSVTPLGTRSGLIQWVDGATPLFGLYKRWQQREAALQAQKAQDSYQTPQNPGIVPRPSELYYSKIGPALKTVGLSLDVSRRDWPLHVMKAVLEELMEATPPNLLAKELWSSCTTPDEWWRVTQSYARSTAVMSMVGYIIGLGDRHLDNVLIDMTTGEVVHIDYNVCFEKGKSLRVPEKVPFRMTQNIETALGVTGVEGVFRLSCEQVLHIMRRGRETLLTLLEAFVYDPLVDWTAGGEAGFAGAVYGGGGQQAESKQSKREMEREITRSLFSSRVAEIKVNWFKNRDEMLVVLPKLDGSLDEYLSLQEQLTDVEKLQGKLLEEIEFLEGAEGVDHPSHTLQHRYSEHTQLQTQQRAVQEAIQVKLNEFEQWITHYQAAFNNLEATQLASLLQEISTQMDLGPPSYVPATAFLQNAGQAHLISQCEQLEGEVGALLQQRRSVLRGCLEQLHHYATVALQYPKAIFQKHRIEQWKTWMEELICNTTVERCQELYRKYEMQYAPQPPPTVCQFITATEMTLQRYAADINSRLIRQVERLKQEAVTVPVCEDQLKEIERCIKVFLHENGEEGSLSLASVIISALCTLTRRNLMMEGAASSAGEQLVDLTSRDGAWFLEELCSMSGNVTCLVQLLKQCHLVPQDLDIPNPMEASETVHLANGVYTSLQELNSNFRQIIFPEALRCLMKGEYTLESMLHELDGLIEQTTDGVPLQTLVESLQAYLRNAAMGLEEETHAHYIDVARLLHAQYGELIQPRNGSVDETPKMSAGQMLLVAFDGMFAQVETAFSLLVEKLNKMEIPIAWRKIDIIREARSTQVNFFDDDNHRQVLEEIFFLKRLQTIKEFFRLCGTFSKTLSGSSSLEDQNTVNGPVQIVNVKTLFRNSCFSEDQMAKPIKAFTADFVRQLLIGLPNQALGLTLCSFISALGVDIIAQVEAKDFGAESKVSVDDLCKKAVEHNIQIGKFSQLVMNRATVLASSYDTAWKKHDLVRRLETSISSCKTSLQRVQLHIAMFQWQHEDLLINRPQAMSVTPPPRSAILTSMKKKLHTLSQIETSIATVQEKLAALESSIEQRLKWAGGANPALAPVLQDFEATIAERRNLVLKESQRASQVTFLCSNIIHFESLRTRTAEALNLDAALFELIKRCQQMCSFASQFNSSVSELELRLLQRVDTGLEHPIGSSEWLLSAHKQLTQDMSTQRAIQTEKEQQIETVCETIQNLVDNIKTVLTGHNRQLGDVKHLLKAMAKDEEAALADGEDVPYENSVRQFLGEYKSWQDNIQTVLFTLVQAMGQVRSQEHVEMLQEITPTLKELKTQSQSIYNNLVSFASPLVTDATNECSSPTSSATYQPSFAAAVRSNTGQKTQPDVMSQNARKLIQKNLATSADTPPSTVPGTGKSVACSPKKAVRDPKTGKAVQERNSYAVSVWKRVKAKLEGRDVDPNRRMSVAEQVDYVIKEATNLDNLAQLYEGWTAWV

Compound	IC50 (human SMG1 enzyme)	Snhg1 fold change ([1]; 12.5 mg/kg oral)	EC50 [2]	Snhg1 fold change ([1]; 10 mg/kg oral)	Snhg1 fold change ([1]; 25 mg/kg oral)	Snhg1 fold change ([1]; 30 mg/kg oral)
CS(=O)(=O)O.[2H]C([2H])([2H])Oc1ccccc1-c1nccc2[nH]c(=O)c(-c3nc4cnc(Cl)cc4[nH]3)cc12 [Example 133, 3-(6-chloro-1H-imidazo[4,5-c]pyridin-2-yl)-5-{2-[(2H3)methyloxy]phenyl}-1,6-naphthyridin-2(1H)-one methanesulfonate]	2.4 nM	8.2	44 nM	–	–	–
CS(=O)(=O)O.[2H]C([2H])([2H])Oc1cccc(F)c1-c1nccc2[nH]c(=O)c(-c3nc4cnc(Cl)cc4[nH]3)cc12 [Example 135, 3-(6-chloro-1H-imidazo[4,5-c]pyridin-2-yl)-5-{2-fluoro-6-[(2H3)methyloxy]phenyl}-1,6-naphthyridin-2(1H)-one methanesulfonate]	2.2 nM	10	39 nM	–	–	–
CS(=O)(=O)O.[2H]C([2H])([2H])Oc1cccc(F)c1-c1nccc2[nH]c(=O)c(-c3nc4c(CC)nc(Cl)cc4[nH]3)cc12 [Example 136, 3-(6-chloro-4-ethyl-1H-imidazo[4,5-c]pyridin-2-yl)-5-{2-fluoro-6-[(2H3)methyloxy]phenyl}-1,6-naphthyridin-2(1H)-one methanesulfonate]	0.63 nM	–	5.3 nM	4.8	–	–
CCc1nc(Cl)cc2[nH]c(-c3cc4c(-c5c(O)cccc5F)nccc4[nH]c3=O)nc12.CS(=O)(=O)O [Example 137, 3-(6-chloro-4-ethyl-1H-imidazo[4,5-c]pyridin-2-yl)-5-(2-fluoro-6-hydroxyphenyl)-1,6-naphthyridin-2(1H)-one methanesulfonate]	1.2 nM	–	10 nM	–	5.1	–
CCc1nc(Cl)cc2[nH]c(-c3cc4c(-c5cnc(C6CC6)cc5OC)nccc4[nH]c3=O)nc12.CS(=O)(=O)O [Example 138, 3-(6-chloro-4-ethyl-1H-imidazo[4,5-c]pyridin-2-yl)-5-(6-cyclopropyl-4-methoxypyridin-3-yl)-1,6-naphthyridin-2(1H)-one methanesulfonate]	0.36 nM	–	1.8 nM	12	–	–
CCc1cc(OC)c(-c2nccc3[nH]c(=O)c(-c4nc5c(CC)nc(Cl)cc5[nH]4)cc23)cn1.CS(=O)(=O)O [Example 139, 3-(6-chloro-4-ethyl-1H-imidazo[4,5-c]pyridin-2-yl)-5-(6-ethyl-4-methoxypyridin-3-yl)-1,6-naphthyridin-2(1H)-one methanesulfonate]	0.31 nM	–	4.3 nM	7.5	–	–
COc1cc(C2CC2)ncc1-c1nccc2[nH]c(=O)c(-c3nc4c(C)nc(Cl)cc4[nH]3)cc12.CS(=O)(=O)O [Example 140, 3-(6-chloro-4-methyl-1H-imidazo[4,5-c]pyridin-2-yl)-5-(6-cyclopropyl-4-methoxypyridin-3-yl)-1,6-naphthyridin-2(1H)-one methanesulfonate]	1 nM	–	8.8 nM	6.3	–	–
CCc1nc(Cl)cc2[nH]c(-c3cc4c(-c5cnc(C(F)F)cc5OC)nccc4[nH]c3=O)nc12.CS(=O)(=O)O [Example 141, 3-(6-chloro-4-ethyl-1H-imidazo[4,5-c]pyridin-2-yl)-5-[6-(difluoromethyl)-4-methoxypyridin-3-yl]-1,6-naphthyridin-2(1H)-one methanesulfonate]	0.37 nM	–	3.1 nM	8.4	–	–
COc1ncccc1-c1nccc2[nH]c(=O)c(-c3nc4c(NCC(F)(F)F)nc(Cl)cc4[nH]3)cc12.CS(=O)(=O)O [Example 142, 3-{6-chloro-4-[(2,2,2-trifluoroethyl)amino]-1H-imidazo[4,5-c]pyridin-2-yl}-5-(2-methoxypyridin-3-yl)-1,6-naphthyridin-2(1H)-one methanesulfonate]	0.63 nM	–	3.7 nM	11	–	–
COc1ncccc1-c1nccc2[nH]c(=O)c(-c3nc4c(NCC(F)F)nc(Cl)cc4[nH]3)cc12.CS(=O)(=O)O [Example 143, 3-{6-chloro-4-[(2,2-difluoroethyl)amino]-1H-imidazo[4,5-c]pyridin-2-yl}-5-(2-methoxypyridin-3-yl)-1,6-naphthyridin-2(1H)-one methanesulfonate]	0.85 nM	–	12 nM	8.5	–	–
COc1cc(OC)c(-c2nccc3[nH]c(=O)c(-c4nc5c(C)nc(Cl)cc5[nH]4)cc23)cn1.CS(=O)(=O)O [Example 144, 3-(6-chloro-4-methyl-1H-imidazo[4,5-c]pyridin-2-yl)-5-(4,6-dimethoxypyridin-3-yl)-1,6-naphthyridin-2(1H)-one methanesulfonate]	0.95 nM	–	19 nM	–	–	4.8
CCc1nc(Cl)cc2[nH]c(-c3cc4c(-c5cnc(C(F)(F)F)cc5OC)nccc4[nH]c3=O)nc12.CS(=O)(=O)O [Example 145, 3-(6-chloro-4-ethyl-1H-imidazo[4,5-c]pyridin-2-yl)-5-[4-methoxy-6-(trifluoromethyl)pyridin-3-yl]-1,6-naphthyridin-2(1H)-one methanesulfonate]	1.2 nM	–	3.1 nM	8.9	–	–
CCc1nc(Cl)cc2[nH]c(-c3cc4c(-c5cnc(OC(F)F)cc5OC)nccc4[nH]c3=O)nc12.CS(=O)(=O)O [Example 146, 3-(6-chloro-4-ethyl-1H-imidazo[4,5-c]pyridin-2-yl)-5-[6-(difluoromethoxy)-4-methoxypyridin-3-yl]-1,6-naphthyridin-2(1H)-one methanesulfonate]	0.49 nM	–	3.8 nM	10	–	–
CCc1nc(Cl)cc2[nH]c(-c3cc4c(-c5cnc(C(C)(F)F)cc5OC)nccc4[nH]c3=O)nc12.CS(=O)(=O)O [Example 147, 3-(6-chloro-4-ethyl-1H-imidazo[4,5-c]pyridin-2-yl)-5-[6-(1,1-difluoroethyl)-4-methoxypyridin-3-yl]-1,6-naphthyridin-2(1H)-one methanesulfonate]	0.67 nM	–	3.9 nM	9.5	–	–
CCc1nc(Cl)cc2[nH]c(-c3cc4c(-c5c(C)nn(C(F)F)c5C)nccc4[nH]c3=O)nc12.CS(=O)(=O)O [Example 148, 3-(6-chloro-4-ethyl-1H-imidazo[4,5-c]pyridin-2-yl)-5-[1-(difluoromethyl)-3,5-dimethyl-1H-pyrazol-4-yl]-1,6-naphthyridin-2(1H)-one methanesulfonate]	0.73 nM	–	12 nM	5.8	–	–
CS(=O)(=O)O.Cc1nn(C(F)F)c(C)c1-c1nccc2[nH]c(=O)c(-c3nc4c(N5CC[C@H]5C)nc(Cl)cc4[nH]3)cc12 [Example 149, 3-{6-chloro-4-[(2R)-2-methylazetidin-1-yl]-1H-imidazo[4,5-c]pyridin-2-yl}-5-[1-(difluoromethyl)-3,5-dimethyl-1H-pyrazol-4-yl]-1,6-naphthyridin-2(1H)-one methanesulfonate]	0.67 nM	–	0.61 nM	12	–	–
CS(=O)(=O)O.Cc1c(-c2nccc3[nH]c(=O)c(-c4nc5c(N[C@H](C)C(F)(F)F)nc(Cl)cc5[nH]4)cc23)cnn1C [Example 152, 3-(6-chloro-4-{[(2R)-1,1,1-trifluoropropan-2-yl]amino}-1H-imidazo[4,5-c]pyridin-2-yl)-5-(1,5-dimethyl-1H-pyrazol-4-yl)-1,6-naphthyridin-2(1H)-one methanesulfonate]	1.1 nM	–	4 nM	7.9	–	–
CS(=O)(=O)O.Cc1c(-c2nccc3[nH]c(=O)c(-c4nc5c(C6CCOCC6)nc(Cl)cc5[nH]4)cc23)c(C2CC2)nn1C(F)F [Example 153, 3-[6-chloro-4-(tetrahydro-2H-pyran-4-yl)-1H-imidazo[4,5-c]pyridin-2-yl]-5-[3-cyclopropyl-1-(difluoromethyl)-5-methyl-1H-pyrazol-4-yl]-1,6-naphthyridin-2(1H)-one methanesulfonate]	0.96 nM	–	5.1 nM	6.9	–	–
